Target: Tie-2 (Homo sapiens, UniProt Q02763)
Assay: Tie-2 tyrosine kinase activity: kinase-dependent ATP consumption (pEY substrate, luciferase/luciferin chemiluminescence) or 33P-ATP incorporation into substrate
Format: biochemical
Conditions: Tie-2 (human enzyme) inhibition, Table 2, class symbols A-D
Experimental: One measure of inhibition is Ki. […] The Ki for a compound is determined from the IC50 based on three assumptions. First, only one compound molecule binds to the enzyme and there is no cooperativity. […] Third, the enzymatic rate of the enzyme-inhibitor complex is zero. The rate (i.e., compound concentration) data are fitted to the equation:
[formula] where V is the observed rate, Vmax, is the rate of the free enzyme, I0 is the inhibitor concentration, E0 is the enzyme concentration, and Kd is the dissociation constant of the enzyme-inhibitor complex.
Tyrosine kinase activity is determined by 1) measurement of kinase-dependent ATP consumption by in the presence of a generic substrate such as polyglutamine, tyrosine (pEY), by luciferase/luciferin-mediated chemiluminescence or; 2) incorporation of radioactive phosphate derived from ^33P-ATP into a generic substrate which has been absorbed onto the well surface of polystyrene microtiter plates. Phosphorylated substrate products are quantified by scintillation spectrometry.
Inhibition is indicated as IC50 with following key: A=IC50 less than 50 nM, B=IC50 greater than 50 nM, but less than or equal to 1000 nM, C=IC50 greater than 1000 nM, but less than 10,000 nM, and D=IC50 10,000 nM or greater. The abbreviation for human enzyme, Tie-2, is defined as tyrosine kinase with immunoglobulin and EGF repeats.

Sequence of Tie-2 (Q02763 23-1124): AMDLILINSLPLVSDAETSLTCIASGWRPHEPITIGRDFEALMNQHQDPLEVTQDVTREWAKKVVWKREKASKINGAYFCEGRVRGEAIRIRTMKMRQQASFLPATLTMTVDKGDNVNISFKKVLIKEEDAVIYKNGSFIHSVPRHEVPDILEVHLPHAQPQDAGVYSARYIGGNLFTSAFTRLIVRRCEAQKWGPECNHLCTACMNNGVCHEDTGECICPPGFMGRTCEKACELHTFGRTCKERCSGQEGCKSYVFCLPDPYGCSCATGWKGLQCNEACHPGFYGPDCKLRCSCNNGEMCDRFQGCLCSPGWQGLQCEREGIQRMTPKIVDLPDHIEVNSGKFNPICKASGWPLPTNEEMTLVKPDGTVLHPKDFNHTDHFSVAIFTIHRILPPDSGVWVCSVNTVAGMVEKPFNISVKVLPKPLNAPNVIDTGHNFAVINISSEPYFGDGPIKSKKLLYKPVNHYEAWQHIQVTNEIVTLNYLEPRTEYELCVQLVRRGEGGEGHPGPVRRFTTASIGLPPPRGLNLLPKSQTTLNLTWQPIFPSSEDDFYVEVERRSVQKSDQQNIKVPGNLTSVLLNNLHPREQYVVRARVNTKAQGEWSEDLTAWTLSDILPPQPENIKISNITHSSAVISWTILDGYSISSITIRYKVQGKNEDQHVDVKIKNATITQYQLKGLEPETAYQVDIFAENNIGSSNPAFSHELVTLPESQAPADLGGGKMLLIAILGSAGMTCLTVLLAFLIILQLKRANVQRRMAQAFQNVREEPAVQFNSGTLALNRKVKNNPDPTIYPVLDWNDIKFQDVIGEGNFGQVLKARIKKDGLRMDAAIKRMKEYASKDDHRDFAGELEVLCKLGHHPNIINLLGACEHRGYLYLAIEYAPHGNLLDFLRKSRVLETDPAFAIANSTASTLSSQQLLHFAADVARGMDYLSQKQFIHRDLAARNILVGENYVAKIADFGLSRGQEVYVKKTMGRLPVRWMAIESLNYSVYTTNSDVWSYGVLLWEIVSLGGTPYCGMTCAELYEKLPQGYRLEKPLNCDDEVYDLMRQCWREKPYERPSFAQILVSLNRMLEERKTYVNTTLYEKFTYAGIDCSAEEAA

Structure (SMILES)	IC50 [µM]
O=C(Cc1cccc2ccccc12)N(CCn1nc(-c2ccncc2)nc1-c1ccc2c(c1)OCO2)C1CCCC1 [Entry 63, N-{2-[5-(1,3-benzodioxol-5-yl)-3-pyridin-4-yl-1H-1,2,4-triazol-1-yl]ethyl}-N-cyclopentyl-2-naphthalen-1-ylacetamide]	< 0.05
O=C(Cc1cccc2ccccc12)N(CCn1nc(-c2ccc3c(c2)OCO3)nc1-c1ccncc1)C1CCCC1 [Entry 64, N-{2-[3-(1,3-benzodioxol-5-yl)-5-pyridin-4-yl-1H-1,2,4-triazol-1-yl]ethyl}-N-cyclopentyl-2-naphthalen-1-ylacetamide]	1 to 10
O=C(Cc1cccc2ccccc12)N(CCn1nc(-c2ccncc2)nc1-c1cccc(Br)c1)C1CCCC1 [Entry 65, N-{2-[5-(3-bromophenyl)-3-pyridin-4-yl-1H-1,2,4-triazol-1-yl]ethyl}-N-cyclopentyl-2-naphthalen-1-ylacetamide]	< 0.05
O=C(Cc1cccc2ccccc12)N(CCn1nc(-c2cccc(Br)c2)nc1-c1ccncc1)C1CCCC1 [Entry 66, N-{2-[3-(3-bromophenyl)-5-pyridin-4-yl-1H-1,2,4-triazol-1-yl]ethyl}-N-cyclopentyl-2-naphthalen-1-ylacetamide]	≥ 10
O=C(Cc1cccc2ccccc12)N(CCn1nc(-c2ccncc2)nc1-c1ccc(Br)cc1)C1CCCC1 [Entry 67, N-{2-[5-(4-bromophenyl)-3-pyridin-4-yl-1H-1,2,4-triazol-1-yl]ethyl}-N-cyclopentyl-2-naphthalen-1-ylacetamide]	< 0.05
O=C(Cc1cccc2ccccc12)N(CCn1nc(-c2ccc(Br)cc2)nc1-c1ccncc1)C1CCCC1 [Entry 68, N-{2-[3-(4-bromophenyl)-5-pyridin-4-yl-1H-1,2,4-triazol-1-yl]ethyl}-N-cyclopentyl-2-naphthalen-1-ylacetamide]	< 0.05
Cc1nc(-c2ccnnc2)nn1CCN(C(=O)Cc1cccc2ccccc12)C1CCCC1 [Entry 69, N-cyclopentyl-N-[2-(5-methyl-3-pyridazin-4-yl-1H-1,2,4-triazol-1-yl)ethyl]-2-naphthalen-1-ylacetamide]	0.05 to 1
Cc1ccc(-c2nc(-c3ccncc3)nn2CCN(C(=O)Cc2cccc3ccccc23)C2CCCC2)cc1 [Entry 70, N-cyclopentyl-N-{2-[5-(4-methylphenyl)-3-pyridin-4-yl-1H-1,2,4-triazol-1-yl]ethyl}-2-naphthalen-1-ylacetamide]	< 0.05
Cc1ccc(-c2nc(-c3ccncc3)n(CCN(C(=O)Cc3cccc4ccccc34)C3CCCC3)n2)cc1 [Entry 71, N-cyclopentyl-N-{2-[3-(4-methylphenyl)-5-pyridin-4-yl-1H-1,2,4-triazol-1-yl]ethyl}-2-naphthalen-1-ylacetamide]	1 to 10
Cc1cccc(-c2nc(-c3ccncc3)nn2CCN(C(=O)Cc2cccc3ccccc23)C2CCCC2)c1 [Entry 72, N-cyclopentyl-N-{2-[5-(3-methylphenyl)-3-pyridin-4-yl-1H-1,2,4-triazol-1-yl]ethyl}-2-naphthalen-1-ylacetamide]	< 0.05
Cc1cccc(-c2nc(-c3ccncc3)n(CCN(C(=O)Cc3cccc4ccccc34)C3CCCC3)n2)c1 [Entry 73, N-cyclopentyl-N-{2-[3-(3-methylphenyl)-5-pyridin-4-yl-1H-1,2,4-triazol-1-yl]ethyl}-2-naphthalen-1-ylacetamide]	1 to 10
O=C(Cc1cccc2ccccc12)N(CCn1nc(-c2ccncc2)nc1-c1ccc(Cl)cc1Cl)C1CCCC1 [Entry 74, N-cyclopentyl-N-{2-[5-(2,4-dichlorophenyl)-3-pyridin-4-yl-1H-1,2,4-triazol-1-yl]ethyl}-2-naphthalen-1-ylacetamide]	< 0.05
O=C(Cc1cccc2ccccc12)N(CCn1nc(-c2ccc(Cl)cc2Cl)nc1-c1ccncc1)C1CCCC1 [Entry 75, N-cyclopentyl-N-{2-[3-(2,4-dichlorophenyl)-5-pyridin-4-yl-1H-1,2,4-triazol-1-yl]ethyl}-2-naphthalen-1-ylacetamide]	1 to 10
O=C(Cc1cccc2ccccc12)N(CCn1nc(-c2ccncc2)nc1-c1ccc(C(F)(F)F)cc1)C1CCCC1 [Entry 76, N-cyclopentyl-2-naphthalen-1-yl-N-(2-{3-pyridin-4-yl-5-[4-(trifluoromethyl)phenyl]-1H-1,2,4-triazol-1-yl}ethyl)acetamide]	< 0.05
O=C(Cc1cccc2ccccc12)N(CCn1nc(-c2ccc(C(F)(F)F)cc2)nc1-c1ccncc1)C1CCCC1 [Entry 77, N-cyclopentyl-2-naphthalen-1-yl-N-(2-{5-pyridin-4-yl-3-[4-(trifluoromethyl)phenyl]-1H-1,2,4-triazol-1-yl}ethyl)acetamide]	≥ 10
COc1ccc(-c2nc(-c3ccncc3)nn2CCN(C(=O)Cc2cccc3ccccc23)C2CC2)cc1Cl [Entry 78, N-(2-{5-[3-chloro-4-(methyloxy)phenyl]-3-pyridin-4-yl-1H-1,2,4-triazol-1-yl}ethyl)-N-cyclopropyl-2-naphthalen-1-ylacetamide]	< 0.05
COc1ccc(-c2nc(-c3ccncc3)nn2CCN(C(=O)Cc2cccc3ccccc23)C(C)C)cc1Cl [Entry 79, N-(2-{5-[3-chloro-4-(methyloxy)phenyl]-3-pyridin-4-yl-1H-1,2,4-triazol-1-yl}ethyl)-N-(1-methylethyl)-2-naphthalen-1-ylacetamide]	≥ 10
CCc1nc(-c2ccncc2)nn1CCN(C(=O)Cc1cccc2ccccc12)C1CCCC1 [Entry 80, N-cyclopentyl-N-[2-(5-ethyl-3-pyridin-4-yl-1H-1,2,4-triazol-1-yl)ethyl]-2-naphthalen-1-ylacetamide]	< 0.05
COc1ccc(-c2nc(-c3ccncc3)nn2CCN(C(=O)Cc2cccc3ccccc23)C2CCN(C)CC2)cc1Cl [Entry 81, N-(2-{5-[3-chloro-4-(methyloxy)phenyl]-3-pyridin-4-yl-1H-1,2,4-triazol-1-yl}ethyl)-N-(1-methylpiperidin-4-yl)-2-naphthalen-1-ylacetamide]	≥ 10
COc1ccc(-c2nc(-c3ccncc3)nn2CCN(C(=O)N[C@@H]2C[C@H]2c2ccccc2)C2CCCC2)cc1Cl [Entry 82, N-(2-{5-[3-chloro-4-(methyloxy)phenyl]-3-pyridin-4-yl-1H-1,2,4-triazol-1-yl}ethyl)-N-cyclopentyl-N′-[(1R,2S)-2-phenylcyclopropyl]urea]	1 to 10
COc1ccc(-c2nc(-c3ccncc3)nn2CCN(C(=O)Nc2ccc(Cl)cc2Cl)C2CCCC2)cc1Cl [Entry 83, N-(2-{5-[3-chloro-4-(methyloxy)phenyl]-3-pyridin-4-yl-1H-1,2,4-triazol-1-yl}ethyl)-N-cyclopentyl-N′-(2,4-dichlorophenyl)urea]	≥ 10
COc1ccc(-c2nc(-c3ccncc3)nn2CCN(C(=O)Nc2ccccc2OC)C2CCCC2)cc1Cl [Entry 84, N-(2-{5-[3-chloro-4-(methyloxy)phenyl]-3-pyridin-4-yl-1H-1,2,4-triazol-1-yl}ethyl)-N-cyclopentyl-N′-[2-(methyloxy)phenyl]urea]	≥ 10
COc1ccc(NC(=O)N(CCn2nc(-c3ccncc3)nc2-c2ccc(OC)c(Cl)c2)C2CCCC2)c(OC)c1 [Entry 85, N′-[2,4-bis(methyloxy)phenyl]-N-(2-{5-[3-chloro-4-(methyloxy)phenyl]-3-pyridin-4-yl-1H-1,2,4-triazol-1-yl}ethyl)-N-cyclopentylurea]	≥ 10

From patent US8178570B2, “Tie-2 modulators and methods of use” (Exelixis, Inc., priority 2003, dated 2012)
